Reference: patent US20060063784A1, “Method of using substituted pyrazolo [1,5-a] pyrimidines” (priority 2004, published 2006)
Read-outs that look alike come from different tables or passages of the source.

Key:
[1] = tested on: 80S14 (p21-deficient) cells; test: Cytotoxicity assay using isogenic cell lines: IC50 in 80S14 (p21-deficient) cells, SRB; assay type: cell-based, human; details: 80S14 (p21-deficient) cells, 5 days, SRB, class symbols, read-out: IC50 for 80S14
In short: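 80S14 (p21-deficient) cells seeded at 12,000 cells/well overnight, then exposed 5 days at 37 °C to serial dilutions (5 pM–50 μM or 170 pg/ml–10 μg/ml). TCA-fixed, sulforhodamine B-stained, absorbance at 560 nm; IC50 taken from cytotoxicity curves versus untreated controls.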

LoVo Colon cell line = test: Cytotoxicity assay using LoVo colon cell line, SRB; assay type: cell-based; details: Cellular activity in LoVo cell, 4 days incubation, SRB, read-out: Inhibition of LoVo
In short: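 LoVo cells (4000/well, RPMI 1640 with 10% FBS, 37 °C, 7% CO2) seeded overnight, then exposed 4 days to serial dilutions spanning 5 pM-20 μM or 170 pg/ml-10 μg/ml. Survival by SRB staining; IC50 from curves relative to untreated controls.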

Row | SMILES | IC50 ([1]; Homo sapiens, 120 h) [µM] | IC50 (LoVo Colon cell line; Homo sapiens, 96 h) [nM] | IC50 [1] [µM] | IC50 (LoVo Colon cell line) [nM]
1 | COc1cc(-c2cnn3c(-c4cccc(NC(=O)CC(C)C)c4)ccnc23)cc(OC)c1OC [Example 467, 3-Methyl-N-{3-[3-(3,4,5-trimethoxyphenyl)pyrazolo[1,5-a]pyrimidin-7-yl]phenyl}butanamide] | < 1 | < 100 |  | 
2 | CC(C)CC(=O)Nc1cccc(-c2ccnc3c(-c4cccc5cccnc45)cnn23)c1 [Example 468, 3-Methyl-N-[3-(3-quinolin-8-ylpyrazolo[1,5-a]pyrimidin-7-yl)phenyl]butanamide] | 1 to 10 | 100 to 1000 |  | 
3 | CC(C)CC(=O)Nc1cccc(-c2ccnc3c(-c4ccc(CO)cc4)cnn23)c1 [Example 469, N-(3-{3-[4-(Hydroxymethyl)phenyl]pyrazolo[1,5-a]pyrimidin-7-yl}phenyl)-3-methylbutanamide] | 10 to 50 | 1000 to 20000 |  | 
4 | COc1ccc(-c2cnn3c(-c4cccc(NC(=O)CC(C)C)c4)ccnc23)cc1 [Example 470, N-{3-[3-(4-Methoxyphenyl)pyrazolo[1,5-a]pyrimidin-7-yl]phenyl}-3-methylbutanamide] | 10 to 50 | 1000 to 20000 |  | 
5 | CC(C)CC(=O)Nc1cccc(-c2ccnc3c(-c4cccc(Cl)c4)cnn23)c1 [Example 471, N-{3-[3-(3-Chlorophenyl)pyrazolo[1,5-a]pyrimidin-7-yl]phenyl}-3-methylbutanamide] | 10 to 50 | 1000 to 20000 |  | 
6 | CC(C)CC(=O)Nc1cccc(-c2ccnc3c(-c4ccc(Cl)cc4)cnn23)c1 [Example 472, N-{3-[3-(4-Chlorophenyl)pyrazolo[1,5-a]pyrimidin-7-yl]phenyl}-3-methylbutanamide] | 10 to 50 | 1000 to 20000 |  | 
7 | CC(C)CC(=O)Nc1cccc(-c2ccnc3c(-c4cccc(Cl)c4Cl)cnn23)c1 [Example 473, N-{3-[3-(2,3-Dichlorophenyl)pyrazolo[1,5-a]pyrimidin-7-yl]phenyl}-3-methylbutanamide] | 1 to 10 | 100 to 1000 |  | 
8 | CC(C)CC(=O)Nc1cccc(-c2ccnc3c(-c4ccc(Cl)c(Cl)c4)cnn23)c1 [Example 474, N-{3-[3-(3,4-Dichlorophenyl)pyrazolo[1,5-a]pyrimidin-7-yl]phenyl}-3-methylbutanamide] | 10 to 50 | 1000 to 20000 |  | 
9 | CC(C)CC(=O)Nc1cccc(-c2ccnc3c(-c4cc(Cl)cc(Cl)c4)cnn23)c1 [Example 475, N-{3-[3-(3,5-Dichlorophenyl)pyrazolo[1,5-a]pyrimidin-7-yl]phenyl}-3-methylbutanamide] | 1 to 10 | 1000 to 20000 |  | 
10 | Cc1cc(C)cc(-c2cnn3c(-c4cccc(NC(=O)CC(C)C)c4)ccnc23)c1 [Example 476, N-{3-[3-(3,5-Dimethylphenyl)pyrazolo[1,5-a]pyrimidin-7-yl]phenyl}-3-methylbutanamide] | < 1 | < 100 |  | 
11 | CC(C)CC(=O)Nc1cccc(-c2ccnc3c(-c4cccc(C(F)(F)F)c4)cnn23)c1 [Example 477, 3-Methyl-N-(3-{3-[3-(trifluoromethyl)phenyl]pyrazolo[1,5-a]pyrimidin-7-yl}phenyl)butanamide] | 10 to 50 | 1000 to 20000 |  | 
12 | COc1cccc(-c2cnn3c(-c4cccc(NC(=O)CC(C)C)c4)ccnc23)c1 [Example 478, N-{3-[3-(3-Methoxyphenyl)pyrazolo[1,5-a]pyrimidin-7-yl]phenyl}-3-methylbutanamide] | 10 to 50 | 1000 to 20000 |  | 
13 | CCOc1cccc(-c2cnn3c(-c4cccc(NC(=O)CC(C)C)c4)ccnc23)c1 [Example 479, N-{3-[3-(3-Ethoxyphenyl)pyrazolo[1,5-a]pyrimidin-7-yl]phenyl}-3-methylbutanamide] | 10 to 50 | 1000 to 20000 |  | 
14 | CC(C)CC(=O)Nc1cccc(-c2ccnc3c(-c4ccc(Oc5ccccc5)cc4)cnn23)c1 [Example 480, 3-Methyl-N-{3-[3-(4-phenoxyphenyl)pyrazolo[1,5-a]pyrimidin-7-yl]phenyl}butanamide] | 10 to 50 | 1000 to 20000 |  | 
15 | CC(C)CC(=O)Nc1cccc(-c2ccnc3c(-c4ccc5c(c4)OCO5)cnn23)c1 [Example 481, N-{3-[3-(1,3-Benzodioxol-5-yl)pyrazolo[1,5-a]pyrimidin-7-yl]phenyl}-3-methylbutanamide] | 1 to 10 | 100 to 1000 |  | 
16 | CC(C)CC(=O)Nc1cccc(-c2ccnc3c(-c4cccc(C#N)c4)cnn23)c1 [Example 482, N-{3-[3-(3-Cyanophenyl)pyrazolo[1,5-a]pyrimidin-7-yl]phenyl}-3-methylbutanamide] | 10 to 50 | 1000 to 20000 |  | 
17 | CC(=O)c1cccc(-c2cnn3c(-c4cccc(NC(=O)CC(C)C)c4)ccnc23)c1 [Example 483, N-{3-[3-(3-Acetylphenyl)pyrazolo[1,5-a]pyrimidin-7-yl]phenyl}-3-methylbutanamide] | 10 to 50 | 1000 to 20000 |  | 

Row | SMILES | IC50 ([1]; Homo sapiens, 120 h) [µM] | IC50 (LoVo Colon cell line; Homo sapiens, 96 h) [nM] | IC50 [1] [µM] | IC50 (LoVo Colon cell line) [nM]
18 | COc1ccc(-c2cnn3c(-c4cccc(NC(=O)CC(C)C)c4)ccnc23)cc1C=O [Example 484, N-{3-[3-(3-Formyl-4-methoxyphenyl)pyrazolo[1,5-a]pyrimidin-7-yl]phenyl}-3-methylbutanamide] | 1 to 10 | 1000 to 20000 |  | 
19 | CC(C)CC(=O)Nc1cccc(-c2ccnc3c(-c4cccc(-c5ccccc5)c4)cnn23)c1 [Example 485, N-{3-[3-(1,1′-Biphenyl-3-yl)pyrazolo[1,5-a]pyrimidin-7-yl]phenyl}-3-methylbutanamide] | 10 to 50 | 1000 to 20000 |  | 
20 | CC(C)CC(=O)Nc1cccc(-c2ccnc3c(-c4ccc(-c5ccccc5)cc4)cnn23)c1 [Example 486, N-{3-[3-(1,1′-Biphenyl-4-yl)pyrazolo[1,5-a]pyrimidin-7-yl]phenyl}-3-methylbutanamide] | 10 to 50 | 1000 to 20000 |  | 
21 | CC(C)CC(=O)Nc1cccc(-c2ccnc3c(-c4cccc(C=O)c4)cnn23)c1 [Example 487, N-{3-[3-(3-Formylphenyl)pyrazolo[1,5-a]pyrimidin-7-yl]phenyl}-3-methylbutanamide] | 10 to 50 | 1000 to 20000 |  | 
22 | CC(C)CC(=O)Nc1cccc(-c2ccnc3c(-c4cccc(CN5CCOCC5)c4)cnn23)c1 [Example 488, 3-Methyl-N-(3-{3-[3-(morpholin-4-ylmethyl)phenyl]pyrazolo[1,5-a]pyrimidin-7-yl}phenyl)butanamide] | 10 to 50 | 1000 to 20000 |  | 
23 | CC(C)CC(=O)Nc1cccc(-c2ccnc3c(-c4cccc(CN5CCN(C)CC5)c4)cnn23)c1 [Example 489, 3-Methyl-N-[3-(3-{3-[(4-methylpiperazin-1-yl)methyl]phenyl}pyrazolo[1,5-a]pyrimidin-7-yl)phenyl]butanamide] | 1 to 10 | 1000 to 20000 |  | 
24 | Cc1cc(C)cc(-c2cnn3c(-c4cccc(C#N)c4)ccnc23)c1 [Example 490, 3-[3-(3,5-Dimethylphenyl)pyrazolo[1,5-a]pyrimidin-7-yl]benzonitrile] | 10 to 50 | 1000 to 20000 |  | 
25 | Cc1cc(C)cc(-c2cnn3c(-c4cccc(-c5nnn[nH]5)c4)ccnc23)c1 [Example 491, 3-(3,5-Dimethylphenyl)-7-[3-(1H-tetraazol-5-yl)phenyl]pyrazolo[1,5-a]pyrimidine] | 1 to 10 | 1000 to 20000 |  | 
26 | Cc1cc(C)cc(-c2cnn3c(-c4cccc(-c5nnn(CC6CCC6)n5)c4)ccnc23)c1 [Example 492, 7-{3-[2-(Cyclobutylmethyl)-2H-tetraazol-5-yl]phenyl}-3-(3,5-dimethylphenyl)pyrazolo[1,5-a]pyrimidine] | 1 to 10 | 100 to 1000 |  | 
27 | Cc1cc(C)cc(-c2cnn3c(-c4cccc(-c5nnn(CCN6CCOCC6)n5)c4)ccnc23)c1 [Example 493, 3-(3,5-Dimethylphenyl)-7-{3-[2-(2-morpholin-4-ylethyl)72H-tetraazol-5-yl]phenyl}pyrazolo[1,5-a]pyrimidine] |  |  | 1 to 10 | 100 to 1000
28 | Cc1cc(C)cc(-c2cnn3c(-c4cccc(-c5nnn(Cc6cccnc6)n5)c4)ccnc23)c1 [Example 494, 3-(3,5-Dimethylphenyl)-7-{3-[2-(pyridin-3-ylmethyl)-2H-tetrazol-5-yl]phenyl}pyrazolo[1,5-a]pyrimidine] | 1 to 10 | 100 to 1000 |  | 
29 | Cc1cc(C)cc(-c2cnn3c(-c4cccc(-c5nnn(Cc6ccccn6)n5)c4)ccnc23)c1 [Example 495, 3-(3,5-Dimethylphenyl)-7-{3-[2-(pyridin-2-ylmethyl)-2H-tetrazol-5-yl]phenyl}pyrazolo[1,5-a]pyrimidine] | 10 to 50 | 100 to 1000 |  | 
30 | CCn1nnc(-c2cccc(-c3ccnc4c(-c5cc(C)cc(C)c5)cnn34)c2)n1 [Example 496, 3-(3,5-Dimethylphenyl)-7-[3-(2-ethyl-2H-tetrazol-5-yl)phenyl]pyrazolo[1,5-a]pyrimidine] | 1 to 10 | 100 to 1000 |  | 
31 | O=C(c1cccs1)c1cnn2c(-c3cccc(-c4nnn[nH]4)c3)ccnc12 [Example 501, {7-[3-(1H-Tetraazol-5-yl)phenyl]pyrazolo[1,5-a]pyrimidin-3-yl}(thien-2-yl)methanone] | 10 to 50 | 1000 to 20000 |  | 
32 | CCn1nnc(-c2cccc(-c3ccnc4c(C(=O)c5cccs5)cnn34)c2)n1 [Example 502, {7-[3-(2-Ethyl-2H-tetraazol-5-yl)phenyl]pyrazolo[1,5-a]pyrimidin-3-yl}(thien-2-yl)methanone] | 1 to 10 | 100 to 1000 |  | 
33 | O=C(c1cccs1)c1cnn2c(-c3cccc(-c4nnn(Cc5cccnc5)n4)c3)ccnc12 [Example 503, (7-{3-[2-(Pyridin-3-ylmethyl)-2H-tetraazol-5-yl]phenyl}pyrazolo[1,5-a]pyrimidin-3-yl)(thien-2-yl)methanone] | < 1 | 100 to 1000 |  | 
